For six compounds, EC50 results are on record in ChEMBL document CHEMBL1150949, “Antimalarial principles from Artemisia indica” (J Nat Prod, 1998).

This assay has as its system Plasmodium falciparum. The assay can be described thus: Antimalarial activity against Plasmodium falciparum K1 by [3H]hypoxanthine uptake. The assay is classed as functional, organism-based.

As for `Oc1ccc(-c2cc3cc4c(cc3o2)OCO4)c(O)c1`, the EC50 was 100 µM. With `Oc1ccc2c(c1)OC[C@@H]1c3cc4c(cc3O[C@H]21)OCO4` [(+)-MAACKIAIN], the EC50 is 165 µM. `COc1c(Cc2ccccc2O)c(O)c(Cc2ccccc2O)c(O)c1C(=O)CCc1ccccc1` [DIUVARETIN] displayed an EC50 of 4.2 µg/mL. Next, `C=C(C)[C@H](CC=C(C)C)Cc1c(O)cc(O)c2c1O[C@H](c1c(O)cccc1O)CC2=O` [EXIGUAFLAVONE A]: 10.8 µM; `C=C(C)[C@H](CC=C(C)C)Cc1c(OC)cc(O)c2c1O[C@H](c1c(O)cccc1O)CC2=O` [EXIGUAFLAVONE B]: 16 µM.

Take `COc1cc(O)c(Cc2ccccc2O)c(O)c1C(=O)CCc1ccccc1` [UVARETIN]: the midpoint of the response, the EC50, lay at 3.49 µg/mL.

For orientation: EC50 means the concentration needed to bring the measured effect to its halfway point.
